According to ChEMBL document CHEMBL3727355, “Chemokine receptor activity regulator” (2014):

Target: T1, C-C chemokine receptor type 10 (Homo sapiens) (UniProt P46092)
T1 sequence (whole entry): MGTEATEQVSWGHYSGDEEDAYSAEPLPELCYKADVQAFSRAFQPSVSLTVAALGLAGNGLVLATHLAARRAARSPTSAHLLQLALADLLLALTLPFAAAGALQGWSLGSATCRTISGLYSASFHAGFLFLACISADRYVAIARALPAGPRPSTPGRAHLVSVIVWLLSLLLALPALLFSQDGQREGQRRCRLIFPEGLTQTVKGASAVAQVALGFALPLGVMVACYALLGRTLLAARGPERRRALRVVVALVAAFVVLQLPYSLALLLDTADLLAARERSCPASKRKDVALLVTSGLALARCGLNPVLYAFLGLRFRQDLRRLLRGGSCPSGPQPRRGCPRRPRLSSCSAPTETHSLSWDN
Experiment: Antagonist activity against human CCR10 expressed in human KJMGER8 cells assessed as inhibition of human recombinant CTACK-induced increase in intracellular calcium level at 100 nmol/L pre-incubated for 30 mins before human recombinant CTACK stimulation for 5 mins by FLIPR assay
Type: functional, cell-based

SMILES: CCC(=O)NS(=O)(=O)c1cnn2c(Nc3ccc(Cl)cc3Cl)c(C(=O)N3CCC(c4ccc(F)cc4)CC3)cnc12
- inhibition: 97%

SMILES: CCNS(=O)(=O)c1cnn2c(Nc3cc(C)ccc3Cl)c(C(=O)N3CCC(c4ccc(F)cc4)CC3)cnc12
- inhibition: 87.8%

SMILES: Cc1ccc(Cl)c(Nc2c(C(=O)N3CCC(c4ccc(F)cc4)CC3)cnc3c(S(=O)(=O)NC(=O)NC4CC4(F)F)cnn23)c1 (centres undefined)
- inhibition: > 100%

SMILES: Cc1cc(F)ccc1Nc1c(C(=O)N2CCC(c3ccc(F)cc3)CC2)cnc2c(S(=O)(=O)NCC(F)(F)F)cnn12
- inhibition: > 100%

SMILES: COCCNS(=O)(=O)c1cnn2c(Nc3ccccc3Cl)c(C(=O)N3CCC(c4ccc(F)cc4)CC3)cnc12
- inhibition: 28.9%

SMILES: Cc1cc(Cl)ccc1Nc1c(C(=O)N2CCC3(CC2)OCc2ccccc23)cnc2c(S(=O)(=O)NC(=O)C3CC3)cnn12
- inhibition: > 100%

SMILES: CCC(=O)NS(=O)(=O)c1cnn2c(Nc3cc(F)ccc3F)c(C(=O)N3CCC(c4ccc(F)cc4)CC3)cnc12
- inhibition: > 100%

SMILES: CCNS(=O)(=O)c1cnn2c(Nc3ccc(F)cc3C)c(C(=O)N3CCC(c4ccccc4)CC3)cnc12
- inhibition: > 100%

SMILES: Cc1ccc(Cl)c(Nc2c(C(=O)N3CCC(c4ccc(F)cc4)CC3)cnc3c(S(=O)(=O)NC(N)=O)cnn23)c1
- inhibition: > 100%

SMILES: CCC(=O)NS(=O)(=O)c1cnn2c(Nc3cc(C)ccc3Cl)c(C(=O)N3CCC4(CC3)OCc3ccccc34)cnc12
- inhibition: > 100%

SMILES: CCNC(=O)NS(=O)(=O)c1cnn2c(Nc3cc(C)ccc3Cl)c(C(=O)N3CC4(C3)CN(c3ccc(F)cc3)C4)cnc12
- inhibition: 24.3%

SMILES: O=C(NS(=O)(=O)c1cnn2c(Nc3cc(Cl)ccc3Cl)c(C(=O)N3CCC4(CC3)OCc3ccccc34)cnc12)C1CC1
- inhibition: > 100%

SMILES: CCNS(=O)(=O)c1cnn2c(Nc3ccc(F)cc3C)c(C(=O)N3CCC(c4ccc(F)cc4)CC3)cnc12
- inhibition: > 100%

SMILES: CCNC(=O)NS(=O)(=O)c1cnn2c(Nc3ccc(Cl)cc3Cl)c(C(=O)N3CCC(c4ccc(F)cc4)CC3)cnc12
- inhibition: 90.7%

SMILES: Cc1ccc(Cl)c(Nc2c(C(=O)N3CCC4(CC3)OCc3ccccc34)cnc3c(S(=O)(=O)NC(=O)NCC(F)(F)F)cnn23)c1
- inhibition: 75.3%

SMILES: CCNC(=O)NS(=O)(=O)c1cnn2c(Nc3ccccc3Cl)c(C(=O)N3CCC(c4ccccc4)CC3)cnc12
- inhibition: 92.4%

SMILES: CCNC(=O)NS(=O)(=O)c1cnn2c(Nc3ccc(Cl)cc3C)c(C(=O)N3CCC4(CC3)OCc3ccccc34)cnc12
- inhibition: > 100%

SMILES: CCNC(=O)NS(=O)(=O)c1cnn2c(Nc3ccc(C)cc3F)c(C(=O)N3CCC4(CC3)OCc3ccccc34)cnc12
- inhibition: > 100%

SMILES: Cc1ccc(F)c(Nc2c(C(=O)N3CCC4(CC3)OCc3ccccc34)cnc3c(S(=O)(=O)NC(=O)NC4CC4(F)F)cnn23)c1 (centres undefined)
- inhibition: > 100%

SMILES: Cc1cc(F)ccc1Nc1c(C(=O)N2CCC(c3ccccc3)CC2)cnc2c(S(=O)(=O)NC(=O)Nc3ccccc3)cnn12
- inhibition: 63.7%

SMILES: Cc1cc(F)ccc1Nc1c(C(=O)N2CCC(c3ccccc3)CC2)cnc2c(S(=O)(=O)NC(=O)CO)cnn12
- inhibition: > 100%

SMILES: CCNS(=O)(=O)c1cnn2c(Nc3cc(C)ccc3Cl)c(C(=O)N3CCC4(CC3)OCc3ccccc34)cnc12
- inhibition: 80.3%

SMILES: CCNC(=O)NS(=O)(=O)c1cnn2c(Nc3ccccc3Cl)c(C(=O)N3CCC(c4ccc(F)cc4)CC3)cnc12
- inhibition: > 100%

SMILES: CCC(=O)NS(=O)(=O)c1cnn2c(Nc3cc(C)ccc3F)c(C(=O)N3CCC4(CC3)OCc3ccccc34)cnc12
- inhibition: > 100%

SMILES: CCC(=O)NS(=O)(=O)c1cnn2c(Nc3cc(C)ccc3Cl)c(C(=O)N3CCC(c4ccc(F)cc4)CC3)cnc12
- inhibition: > 100%

SMILES: Cc1cc(F)ccc1Nc1c(C(=O)N2CCC(c3ccccc3)CC2)cnc2c(S(=O)(=O)NC(=O)N3CCOCC3)cnn12
- inhibition: 85.9%

SMILES: CCNC(=O)NS(=O)(=O)c1cnn2c(Nc3cc(Cl)ccc3F)c(C(=O)N3CCC(c4ccc(F)cc4)CC3)cnc12
- inhibition: > 100%

SMILES: CCC(=O)NS(=O)(=O)c1cnn2c(Nc3ccc(F)cc3Cl)c(C(=O)N3CCC4(CC3)OCc3ccccc34)cnc12
- inhibition: > 100%

SMILES: CC1(C(=O)NS(=O)(=O)c2cnn3c(Nc4cc(Cl)ccc4Cl)c(C(=O)N4CCC(c5ccc(F)cc5)CC4)cnc23)COC1
- inhibition: > 100%

SMILES: Cc1cc(F)ccc1Nc1c(C(=O)N2CCC(c3ccc(F)cc3)CC2)cnc2c(S(=O)(=O)NC3CC3)cnn12
- inhibition: > 100%

SMILES: O=C(NC1CC1)NS(=O)(=O)c1cnn2c(Nc3ccc(F)cc3Cl)c(C(=O)N3CCC(c4ccc(F)cc4)CC3)cnc12
- inhibition: > 100%

SMILES: COC(=O)NS(=O)(=O)c1cnn2c(Nc3ccc(F)cc3C)c(C(=O)N3CCC(c4ccccc4)CC3)cnc12
- inhibition: 90.7%

SMILES: CC(=O)NS(=O)(=O)c1cnn2c(Nc3cc(F)ccc3F)c(C(=O)N3CCC(c4ccc(F)cc4)CC3)cnc12
- inhibition: > 100%

SMILES: CCC(=O)NS(=O)(=O)c1cnn2c(Nc3cc(C)c(F)cc3Cl)c(C(=O)N3CCC(c4ccc(F)cc4)CC3)cnc12
- inhibition: > 100%

SMILES: CCNC(=O)NS(=O)(=O)c1cnn2c(Nc3cc(Cl)ccc3Cl)c(C(=O)N3CCC(c4ccc(F)cc4)CC3)cnc12
- inhibition: 96.7%

SMILES: CCC(=O)NS(=O)(=O)c1cnn2c(Nc3ccc(C)cc3Cl)c(C(=O)N3CCC(c4ccc(F)cc4)CC3)cnc12
- inhibition: 98.3%

SMILES: CC(=O)NS(=O)(=O)c1cnn2c(Nc3cc(Cl)ccc3F)c(C(=O)N3CCC(c4ccc(F)cc4)CC3)cnc12
- inhibition: > 100%

SMILES: Cc1ccc(Cl)c(Nc2c(C(=O)N3CCC4(CC3)OCc3ccccc34)cnc3c(S(=O)(=O)NC(=O)C4(C)COC4)cnn23)c1
- inhibition: > 100%

SMILES: CC(=O)NS(=O)(=O)c1cnn2c(Nc3cc(C)ccc3Cl)c(C(=O)N3CCC4(CC3)OCc3ccccc34)cnc12
- inhibition: > 100%

SMILES: O=C(c1cnc2c(S(=O)(=O)Nc3cccnn3)cnn2c1Nc1cc(Cl)ccc1Cl)N1CCC(c2ccc(F)cc2)CC1
- inhibition: > 100%

SMILES: CCC(=O)NS(=O)(=O)c1cnn2c(Nc3cc(C(F)(F)F)ccc3Cl)c(C(=O)N3CCC(c4ccc(F)cc4)CC3)cnc12
- inhibition: > 100%

SMILES: CCNC(=O)NS(=O)(=O)c1cnn2c(Nc3ccc(Cl)c(Cl)c3)c(C(=O)N3CCC(c4ccc(F)cc4)CC3)cnc12
- inhibition: > 100%

SMILES: CCC(=O)NS(=O)(=O)c1cnn2c(Nc3cc(Cl)ccc3Cl)c(C(=O)N3CCC4(CC3)OCc3ccccc34)cnc12
- inhibition: > 100%

SMILES: CCONS(=O)(=O)c1cnn2c(Nc3cc(Cl)ccc3Cl)c(C(=O)N3CCC(c4ccc(F)cc4)CC3)cnc12
- inhibition: > 100%

SMILES: Cc1cc(F)ccc1Nc1c(C(=O)N2CCC(c3ccccc3)CC2)cnc2c(S(=O)(=O)/N=C/N(C)C)cnn12
- inhibition: 68.9%

SMILES: CC(=O)NS(=O)(=O)c1cnn2c(Nc3cccc(Cl)c3Cl)c(C(=O)N3CCC(c4ccc(F)cc4)CC3)cnc12
- inhibition: > 100%

SMILES: CC(=O)NS(=O)(=O)c1cnn2c(Nc3cc(Cl)ccc3Cl)c(C(=O)N3CCC(c4ccc(F)cc4)CC3)cnc12
- inhibition: > 100%

SMILES: COC(=O)NS(=O)(=O)c1cnn2c(Nc3cc(C)ccc3C)c(C(=O)N3CCC(c4ccccc4)CC3)cnc12
- inhibition: > 100%

SMILES: O=CNS(=O)(=O)c1cnn2c(Nc3cc(Cl)ccc3Cl)c(C(=O)N3CCC(c4ccc(F)cc4)CC3)cnc12
- inhibition: > 100%

SMILES: CCNC(=O)NS(=O)(=O)c1cnn2c(Nc3cc(F)ccc3Cl)c(C(=O)N3CCC(c4ccc(F)cc4)CC3)cnc12
- inhibition: > 100%

SMILES: CCC(=O)NS(=O)(=O)c1cnn2c(Nc3cc(C)ccc3Cl)c(C(=O)N3CC4(C3)CN(c3ccc(F)cc3)C4)cnc12
- inhibition: 90.2%

SMILES: Cc1cc(F)ccc1Nc1c(C(=O)N2CCC(c3ccccc3)CC2)cnc2c(S(=O)(=O)NS(C)(=O)=O)cnn12
- inhibition: 88.8%

SMILES: CC(=O)NS(=O)(=O)c1cnn2c(Nc3ccc(F)cc3C)c(C(=O)N3CCC(c4ccccc4)CC3)cnc12
- inhibition: > 100%

SMILES: CCC(=O)NS(=O)(=O)c1cnn2c(Nc3cc(Cl)ccc3Cl)c(C(=O)N3CCC(c4ccc(F)cc4)CC3)cnc12
- inhibition: > 100%

SMILES: CCNS(=O)(=O)c1cnn2c(Nc3ccc(Cl)cc3C)c(C(=O)N3CCC(c4ccc(F)cc4)CC3)cnc12
- inhibition: > 100%

SMILES: CCNC(=O)NS(=O)(=O)c1cnn2c(Nc3cc(C)c(F)cc3Cl)c(C(=O)N3CCC(c4ccc(F)cc4)CC3)cnc12
- inhibition: > 100%

SMILES: CCC(=O)NS(=O)(=O)c1cnn2c(Nc3cc(C)ccc3F)c(C(=O)N3CCC(c4ccc(F)cc4)CC3)cnc12
- inhibition: > 100%

SMILES: Cc1ccc(F)c(Nc2c(C(=O)N3CCC4(CC3)OCc3ccccc34)cnc3c(S(=O)(=O)NC(=O)C4CC4)cnn23)c1
- inhibition: > 100%

SMILES: CCNC(=O)NS(=O)(=O)c1cnn2c(Nc3ccc(F)cc3C)c(C(=O)N3CCC4(CC3)OCc3ccccc34)cnc12
- inhibition: 92%

SMILES: CCNC(=O)NS(=O)(=O)c1cnn2c(Nc3cc(C)ccc3Cl)c(C(=O)N3CCC4(CC3)OCc3ccccc34)cnc12
- inhibition: 95.2%

SMILES: CCN(CC)S(=O)(=O)c1cnn2c(Nc3ccc(F)cc3C)c(C(=O)N3CCC(c4ccccc4)CC3)cnc12
- inhibition: > 100%

SMILES: O=C(c1cnc2c(S(=O)(=O)Nc3ncccn3)cnn2c1Nc1cc(Cl)ccc1Cl)N1CCC(c2ccc(F)cc2)CC1
- inhibition: > 100%

SMILES: O=C(NS(=O)(=O)c1cnn2c(Nc3ccccc3Cl)c(C(=O)N3CCC(c4ccccc4)CC3)cnc12)C1CC1
- inhibition: 98.9%

SMILES: O=C(c1cnc2c(S(=O)(=O)Nc3nncs3)cnn2c1Nc1cc(Cl)ccc1Cl)N1CCC(c2ccc(F)cc2)CC1
- inhibition: > 100%

SMILES: Cc1cc(Nc2c(C(=O)N3CCC(c4ccc(F)cc4)CC3)cnc3c(S(=O)(=O)NC(=O)C4CC4)cnn23)c(Cl)cc1F
- inhibition: > 100%

SMILES: CNCC(=O)NS(=O)(=O)c1cnn2c(Nc3ccc(F)cc3C)c(C(=O)N3CCC(c4ccccc4)CC3)cnc12
- inhibition: 58.8%

SMILES: CCC(=O)NS(=O)(=O)c1cnn2c(Nc3ccc(C)cc3F)c(C(=O)N3CCC4(CC3)OCc3ccccc34)cnc12
- inhibition: > 100%

SMILES: CCNC(=O)NS(=O)(=O)c1cnn2c(Nc3ccc(F)cc3C)c(C(=O)N3CCC(c4ccccc4)CC3)cnc12
- inhibition: 72.6%

SMILES: COCC(=O)NS(=O)(=O)c1cnn2c(Nc3ccc(F)cc3C)c(C(=O)N3CCC(c4ccccc4)CC3)cnc12
- inhibition: 94.2%
